{
  "source": "BigSolDB 2.1",
  "data": [
    {"smiles": "NC(CO)(CO)CO", "values": [
      {"measurement": "solubility (mole fraction)", "setting": "in n-propanol, 293.2 K", "result": 0.0038},
      {"measurement": "solubility (mole fraction)", "setting": "in n-propanol, 298.2 K", "result": 0.005},
      {"measurement": "solubility (mole fraction)", "setting": "in n-propanol, 303.2 K", "result": 0.0063},
      {"measurement": "solubility (mole fraction)", "setting": "in n-propanol, 308.2 K", "result": 0.0072},
      {"measurement": "solubility (mole fraction)", "setting": "in n-propanol, 313.2 K", "result": 0.0088},
      {"measurement": "solubility (mole fraction)", "setting": "in water, 293.2 K", "result": 0.0831},
      {"measurement": "solubility (mole fraction)", "setting": "in water, 298.2 K", "result": 0.092},
      {"measurement": "solubility (mole fraction)", "setting": "in water, 303.2 K", "result": 0.101},
      {"measurement": "solubility (mole fraction)", "setting": "in water, 308.2 K", "result": 0.11},
      {"measurement": "solubility (mole fraction)", "setting": "in water, 313.2 K", "result": 0.123}
    ]}
  ]
}
